Calls of active or inactive are those of the source. The calls are words filed in the database; no cut-off is given here.
Target: T1, DNA topoisomerase 1 (Homo sapiens, UniProt P11387)
T1 sequence (P11387 whole entry): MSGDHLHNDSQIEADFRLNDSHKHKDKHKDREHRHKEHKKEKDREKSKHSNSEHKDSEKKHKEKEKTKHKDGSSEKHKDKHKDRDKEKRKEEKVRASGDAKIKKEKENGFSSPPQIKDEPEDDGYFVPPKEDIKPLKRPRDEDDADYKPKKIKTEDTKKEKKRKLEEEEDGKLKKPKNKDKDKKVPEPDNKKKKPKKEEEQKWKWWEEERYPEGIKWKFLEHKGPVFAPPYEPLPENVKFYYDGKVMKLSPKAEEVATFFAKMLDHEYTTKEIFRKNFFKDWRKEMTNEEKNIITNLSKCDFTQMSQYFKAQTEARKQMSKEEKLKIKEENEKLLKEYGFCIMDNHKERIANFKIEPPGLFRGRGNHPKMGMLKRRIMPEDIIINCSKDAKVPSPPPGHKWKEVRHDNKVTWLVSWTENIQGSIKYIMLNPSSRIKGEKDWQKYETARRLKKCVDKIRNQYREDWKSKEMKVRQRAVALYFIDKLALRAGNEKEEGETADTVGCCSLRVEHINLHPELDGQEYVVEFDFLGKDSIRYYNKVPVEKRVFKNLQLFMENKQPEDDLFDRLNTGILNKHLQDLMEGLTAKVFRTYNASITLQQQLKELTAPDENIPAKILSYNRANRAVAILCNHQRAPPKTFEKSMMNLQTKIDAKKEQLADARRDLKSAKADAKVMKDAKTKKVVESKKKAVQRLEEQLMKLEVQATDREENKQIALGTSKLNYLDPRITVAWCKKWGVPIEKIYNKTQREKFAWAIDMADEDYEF
Assay: Inhibition of wild type recombinant human Top1 expressed in baculovirus infected insect Sf9 cells assessed as decrease in supercoiled pBS(SK+) DNA isomer relaxation preincubated for 5 mins followed by pBS(SK+) DNA addition by agarose gel electrophoresis
Settings: not given

Row | Compound | EC50 [µM]
1 | O=C1NC(=S)N/C1=C/c1cc(Br)cs1 | > 100
2 | Cc1ccc(/C=C2/NC(=S)NC2=O)cc1 | > 100
3 | COc1ccc(-c2csc(/C=C3/NC(=O)NC3=O)c2)cn1 | > 100
4 | O=C1NC(=O)/C(=C\c2cc(Br)cs2)N1 | > 100
5 | COc1cc(/C=C2/NC(=O)NC2=O)cc(OC)c1OC | > 100
6 | Cc1ccc(/C=C2/NC(=O)NC2=O)cc1 | > 100
7 | Cc1cc(C)cc(/C=C2/NC(=O)NC2=O)c1 | > 100
8 | COc1cccc(/C=C2/NC(=S)NC2=O)c1 | > 100
9 | COc1ccc(/C=C2/NC(=O)NC2=O)cc1C | > 100
10 | COc1ccc(/C=C2/NC(=S)NC2=O)cc1OC | > 100
11 | COc1ccc(-c2ccc(/C=C3/NC(=O)NC3=O)s2)cn1 | > 100
12 | O=C1NC(=S)N/C1=C/c1ccc([N+](=O)[O-])cc1 | > 100
13 | COc1ccc(/C=C2/NC(=O)NC2=O)cc1OC | > 100
14 | COc1ccc(/C=C2/NC(=S)NC2=O)cc1 | > 100

The remaining lines, values ahead:

Row | EC50 [µM] | Compound
15 | > 100 | COc1ccc(/C=C2/NC(=S)NC2=O)cc1C
16 | 30.3 | COc1ccc(-c2csc(/C=C3/NC(=S)NC3=O)c2)cn1
17 | 27.7 | O=C1NC(=S)N/C1=C/c1ccc(-c2cccnc2)s1
18 | 10.1 | COc1ccc(-c2ccc(/C=C3/NC(=S)NC3=O)s2)cn1
19 | 93.2 | COc1cc(/C=C2/NC(=S)NC2=O)cc(OC)c1OC
20 | 48.9 | Cn1cc(/C=C2/NC(=S)NC2=O)c2ccccc21

Tested on: Leishmania donovani
Assay: Inhibition of Leishmania donovani Top1 (large/ small subunits) expressed in Escherichia coli BL21 (DE3) pLysS cells assessed as decrease in supercoiled pBS(SK+) DNA isomer relaxation at 5 to 200 uM incubated simultaneously with enzyme and pBS(SK+) DNA for 30 mins by agarose gel electrophoresis
Settings: not given

Row | Compound | inhibition
21 | COc1ccc(-c2ccc(/C=C3/NC(=S)NC3=O)s2)cn1 | Active

Target: T2, DNA topoisomerase 1 (Homo sapiens) (UniProt P11387)
T2 sequence (whole entry): T1 sequence (P11387 whole entry)
Assay: Inhibition of human Top1 in human MCF7 cells assessed as decrease in supercoiled pBS(SK+) DNA isomer relaxation at 5 to 200 uM incubated simultaneously with enzyme and pBS(SK+) DNA for 30 mins by agarose gel electrophoresis
Format: cell-based
Settings: not given

Row | inhibition | Compound
22 | Active | COc1ccc(-c2ccc(/C=C3/NC(=S)NC3=O)s2)cn1

Tested on: not listed separately
Assay: Toxicity in HEK293 cells assessed as inhibition of cell viability after 72 hrs by MTT assay
Format: cell-based
Settings: human

Row | Compound | IC50 at 72 h [µM]
23 | COc1ccc(-c2ccc(/C=C3/NC(=S)NC3=O)s2)cn1 | > 50

Tested on: HCT-116
Assay: Cytotoxicity against human HCT116 cells assessed as inhibition of cell viability after 72 hrs by MTT assay
Format: functional, cell-based
Settings: HCT-116, 72 h

Row | Compound | IC50 [µM]
24 | COc1ccc(-c2ccc(/C=C3/NC(=S)NC3=O)s2)cn1 | > 50

Target: T2, DNA topoisomerase 1 (Homo sapiens)
Assay: Inhibition of human Top1 in human MCF7 cells assessed as decrease in supercoiled pBS(SK+) DNA isomer relaxation at 5 to 200 uM preincubated for 5 mins followed by pBS(SK+) DNA addition by agarose gel electrophoresis
Format: cell-based
Settings: not given

Row | inhibition | Compound
25 | Active | COc1ccc(-c2ccc(/C=C3/NC(=S)NC3=O)s2)cn1

Target: T2, DNA topoisomerase 1 (Homo sapiens)
Assay: Inhibition of wild type recombinant human Top1 expressed in baculovirus infected insect Sf9 cells assessed as stabilization of Top1-cleavage complexes at 50 to 200 uM incubated for 30 mins by agarose gel electrophoresis
Settings: not given

Row | inhibition | Compound
26 | Active | COc1ccc(-c2ccc(/C=C3/NC(=S)NC3=O)s2)cn1

Tested on: MCF7
Assay: Cytotoxicity against human MCF7 cells assessed as inhibition of cell viability after 72 hrs by MTT assay
Format: functional, cell-based
Settings: MCF7, 72 h

Row | Compound | IC50 [µM]
27 | COc1ccc(-c2ccc(/C=C3/NC(=S)NC3=O)s2)cn1 | 11.4

Tested on: not listed separately
Assay: Inhibition of Leishmania donovani Top1 (large/ small subunits) expressed in Escherichia coli BL21 (DE3) pLysS cells assessed as decrease in supercoiled pBS(SK+) DNA isomer relaxation preincubated for 5 mins followed by pBS(SK+) DNA addition by agarose gel electrophoresis
Settings: not given

Row | Compound | EC50 [µM]
28 | O=C1NC(=S)N/C1=C/c1cc(Br)cs1 | > 100
29 | Cc1ccc(/C=C2/NC(=S)NC2=O)cc1 | > 100
30 | COc1ccc(-c2csc(/C=C3/NC(=O)NC3=O)c2)cn1 | > 100
31 | O=C1NC(=O)/C(=C\c2cc(Br)cs2)N1 | > 100
32 | COc1cc(/C=C2/NC(=O)NC2=O)cc(OC)c1OC | > 100
33 | Cc1ccc(/C=C2/NC(=O)NC2=O)cc1 | > 100
34 | Cc1cc(C)cc(/C=C2/NC(=O)NC2=O)c1 | > 100
35 | COc1cccc(/C=C2/NC(=S)NC2=O)c1 | > 100
36 | COc1ccc(/C=C2/NC(=O)NC2=O)cc1C | > 100
37 | COc1ccc(/C=C2/NC(=S)NC2=O)cc1OC | > 100
38 | COc1ccc(-c2ccc(/C=C3/NC(=O)NC3=O)s2)cn1 | > 100
39 | O=C1NC(=S)N/C1=C/c1ccc([N+](=O)[O-])cc1 | > 100
40 | COc1ccc(/C=C2/NC(=O)NC2=O)cc1OC | > 100
41 | COc1ccc(/C=C2/NC(=S)NC2=O)cc1 | > 100

The remaining lines, values ahead:

Row | EC50 [µM] | Compound
42 | > 100 | COc1ccc(/C=C2/NC(=S)NC2=O)cc1C
43 | 63.1 | COc1ccc(-c2csc(/C=C3/NC(=S)NC3=O)c2)cn1
44 | 54.8 | O=C1NC(=S)N/C1=C/c1ccc(-c2cccnc2)s1
45 | 65.2 | COc1ccc(-c2ccc(/C=C3/NC(=S)NC3=O)s2)cn1
46 | > 100 | COc1cc(/C=C2/NC(=S)NC2=O)cc(OC)c1OC
47 | > 100 | Cn1cc(/C=C2/NC(=S)NC2=O)c2ccccc21

Target: T2, DNA topoisomerase 1 (Homo sapiens)
Assay: Inhibition of wild type recombinant human Top1 expressed in baculovirus infected insect Sf9 cells assessed as decrease in supercoiled pBS(SK+) DNA isomer relaxation at 5 to 200 uM incubated simultaneously with enzyme and pBS(SK+) DNA for 30 mins by agarose gel electrophoresis
Settings: not given

Row | inhibition | Compound
48 | Active | COc1ccc(-c2ccc(/C=C3/NC(=S)NC3=O)s2)cn1

Tested on: HeLa
Assay: Cytotoxicity against human HeLa cells assessed as inhibition of cell viability after 72 hrs by MTT assay
Format: functional, cell-based
Settings: not given

Row | Compound | IC50 [µM]
49 | COc1ccc(-c2ccc(/C=C3/NC(=S)NC3=O)s2)cn1 | 1.1

Source: ChEMBL document CHEMBL3621093, “Design, synthesis and evaluation of thiohydantoin derivatives as potent topoisomerase I (Top1) inhibitors with anticancer activity” (Eur J Med Chem, 2015)
